According to PMC9186362, “Design and biological evaluation of substituted 5,7-dihydro-6H-indolo[2,3-c]quinolin-6-one as novel selective Haspin inhibitors” (Journal of Enzyme Inhibition and Medicinal Chemistry, 2022):

How the values were obtained:
HCT116 spheroids = assay: 3D spheroid viability; format: cell-based, human; conditions: 2.5, 5 and 10 µM single dose, 7 days
Experimental: (§1) U-2 OS cells were seeded at 5000 cells per well and HCT116 at 1500 cells per well, in 96-well black ULA plates (Ultra Low Adherence, Corning). After centrifugation at 200 g for 10 min, spheroids were incubated at 37 °C for 3 days in order to reach 400 µm in diameter. Compounds were then added at a single dose (2.5, 5, or 10 μM) and cell viability was measured after 7 days using the CellTiter-Glo® 3D Cell Viability Assay (Promega) following the manufacturer's protocol. Luminescence was measured using an EnVision® plate reader (Perkin Elmer).

U-2 OS spheroids = assay: 3D spheroid viability; format: cell-based, human; conditions: 2.5, 5 and 10 µM single dose, 7 days
Experimental: as §1

MYO3B (MYO3 beta) = target: T1, MYO3B (MYO3 beta) (Homo sapiens, UniProt Q8WXR4); assay: LanthaScreen Binding - Eu-anti-GST; conditions: read-out: Percentage of inhibition
T1 construct: purchased Life Technologies (SelectScreen Whole Panel)
Procedure, shortened: (§2)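 The test compound was screened at a single concentration of 1 μM across a broad commercial kinase selectivity panel, and activity against each kinase is given as percent inhibition.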

KIT D816H = target: T2, KIT D816H (Homo sapiens, UniProt P10721, D816H); assay: LanthaScreen Binding - Eu-anti-GST; conditions: read-out: Percentage of inhibition
T2 construct: purchased Life Technologies (SelectScreen service)
Procedure, shortened: as §2

MAP3K3 (MEKK3) = target: T3, MAP3K3 (MEKK3) (Homo sapiens, UniProt Q99759); assay: LanthaScreen Binding - Eu-anti-GST; conditions: read-out: Percentage of inhibition
T3 construct: purchased Life Technologies (SelectScreen service)
Procedure, shortened: as §2

TGFBR1 (ALK5) = target: T4, TGFBR1 (ALK5) (Homo sapiens, UniProt P36897); assay: LanthaScreen Binding - Eu-anti-GST; conditions: read-out: Percentage of inhibition
T4 construct: purchased Life Technologies (SelectScreen Whole Panel service)
Procedure, shortened: as §2

PKMYT1 = PKMYT1 (Homo sapiens, UniProt Q99640); assay: LanthaScreen Binding - Eu-anti-GST; conditions: read-out: Percentage of inhibition
Procedure, shortened: as §2

WNK2 = WNK2 (Homo sapiens, UniProt Q9Y3S1); assay: LanthaScreen Binding - Eu-anti-GST; conditions: read-out: Percentage of inhibition
Procedure, shortened: as §2

DDR2 = target: T5, DDR2 (Homo sapiens, UniProt Q16832); assay: LanthaScreen Binding - Eu-anti-GST; conditions: read-out: Percentage of inhibition
T5 construct: purchased Life Technologies
Procedure, shortened: as §2

ALK R1275Q = target: T6, ALK R1275Q (Homo sapiens, UniProt Q9UM73, R1275Q); assay: LanthaScreen Binding - Eu-anti-GST; conditions: read-out: Percentage of inhibition
T6 construct: purchased Life Technologies (SelectScreen service)
Procedure, shortened: as §2

EIF2AK2 (PKR) = target: T7, EIF2AK2 (PKR) (Homo sapiens, UniProt P19525); assay: LanthaScreen Binding - Eu-anti-GST; conditions: read-out: Percentage of inhibition
T7 construct: purchased Life Technologies (SelectScreen service)
Procedure, shortened: as §2

ALK L1196M = target: T8, ALK L1196M (Homo sapiens, UniProt Q9UM73, L1196M); assay: LanthaScreen Binding - Eu-anti-GST; conditions: read-out: Percentage of inhibition
T8 construct: purchased Life Technologies (SelectScreen Whole Panel service)
Procedure, shortened: as §2

CDK11/cyclin C = target: T9, CDK11/cyclin C (Homo sapiens, UniProt Q9BWU1); assay: LanthaScreen Binding - Eu-anti-GST; conditions: read-out: Percentage of inhibition
T9 construct: purchased Life Technologies
Procedure, shortened: as §2

MAP2K4 (MEK4) = target: T10, MAP2K4 (MEK4) (Homo sapiens, UniProt P45985); assay: LanthaScreen Binding - Eu-anti-GST; conditions: read-out: Percentage of inhibition
T10 construct: purchased Life Technologies (SelectScreen service)
Procedure, shortened: as §2

STK17B (DRAK2) = target: T11, STK17B (DRAK2) (Homo sapiens, UniProt O94768); assay: LanthaScreen Binding - Eu-anti-GST; conditions: ATP Km, read-out: Percentage of inhibition
T11 construct: purchased Life Technologies
Procedure, shortened: as §2

KIT T670E = KIT T670E (Homo sapiens, UniProt P10721, T670E); assay: LanthaScreen Binding - Eu-anti-GST; conditions: read-out: Percentage of inhibition
Procedure, shortened: as §2

MAP3K2 (MEKK2) = target: T12, MAP3K2 (MEKK2) (Homo sapiens, UniProt Q9Y2U5); assay: LanthaScreen Binding - Eu-anti-GST; conditions: read-out: Percentage of inhibition
T12 construct: purchased Life Technologies
Procedure, shortened: as §2

RET V804M = target: T13, RET V804M (Homo sapiens, UniProt P07949, V804M); assay: LanthaScreen Binding - Eu-anti-GST; conditions: read-out: Percentage of inhibition
T13 construct: purchased Life Technologies (SelectScreen service)
Procedure, shortened: as §2

BRAF = target: T14, BRAF (Homo sapiens, UniProt P15056); assay: LanthaScreen Binding - Eu-anti-GST; conditions: read-out: Percentage of inhibition
T14 construct: purchased Life Technologies (SelectScreen Whole Panel)
Procedure, shortened: as §2

ANKK1 = target: T15, ANKK1 (Homo sapiens, UniProt Q8NFD2); assay: LanthaScreen Binding - Eu-anti-GST; conditions: read-out: Percentage of inhibition
T15 construct: purchased Life Technologies (SelectScreen service)
Procedure, shortened: as §2

IRAK3 = target: T16, IRAK3 (Homo sapiens, UniProt Q9Y616); assay: LanthaScreen Binding - Eu-anti-GST; conditions: read-out: Percentage of inhibition
T16 construct: purchased Life Technologies (SelectScreen service)
Procedure, shortened: as §2

ACVR2B = ACVR2B (Homo sapiens, UniProt Q13705); assay: LanthaScreen Binding - Eu-anti-GST; conditions: read-out: Percentage of inhibition
Procedure, shortened: as §2

MKNK2 (MNK2) = MKNK2 (MNK2) (Homo sapiens, UniProt Q9HBH9); assay: LanthaScreen Binding - Eu-anti-GST; conditions: read-out: Percentage of inhibition
Procedure, shortened: as §2

DYRK2 = target: T17, DYRK2 (Homo sapiens, UniProt Q92630); assay: LanthaScreen Binding - Eu-anti-GST; conditions: read-out: Percentage of inhibition
T17 construct: purchased Life Technologies
Procedure, shortened: as §2

GAK = target: T18, GAK (Homo sapiens, UniProt O14976); assay: LanthaScreen Binding - Eu-anti-GST; conditions: read-out: Percentage of inhibition
T18 construct: purchased Life Technologies (SelectScreen service)
Procedure, shortened: as §2

SIK1 = target: T19, SIK1 (Homo sapiens, UniProt P57059); assay: LanthaScreen Binding - Eu-anti-GST; conditions: read-out: Percentage of inhibition
T19 construct: purchased Life Technologies (SelectScreen Whole Panel service)
Procedure, shortened: as §2

MYO3A (MYO3 alpha) = target: T20, MYO3A (MYO3 alpha) (Homo sapiens, UniProt Q8NEV4); assay: LanthaScreen Binding - Eu-anti-GST; conditions: read-out: Percentage of inhibition
T20 construct: purchased Life Technologies
Procedure, shortened: as §2

MAPK10 (JNK3) = target: T21, MAPK10 (JNK3) (Homo sapiens, UniProt P53779); assay: LanthaScreen Binding - Eu-anti-GST; conditions: read-out: Percentage of inhibition
T21 construct: purchased Life Technologies
Procedure, shortened: as §2

FGFR1 V561M = FGFR1 V561M (Homo sapiens, UniProt P11362, V561M); assay: LanthaScreen Binding - Eu-anti-GST; conditions: read-out: Percentage of inhibition
Procedure, shortened: as §2

ADCK3 = ADCK3 (Homo sapiens, UniProt Q8NI60); assay: LanthaScreen Binding - Eu-anti-GST; conditions: read-out: Percentage of inhibition
Procedure, shortened: as §2

MAP4K3 (GLK) = MAP4K3 (GLK) (Homo sapiens, UniProt Q8IVH8); assay: LanthaScreen Binding - Eu-anti-GST; conditions: read-out: Percentage of inhibition
Procedure, shortened: as §2

BRSK2 = target: T22, BRSK2 (Homo sapiens, UniProt Q8IWQ3); assay: LanthaScreen Binding - Eu-anti-GST; conditions: read-out: Percentage of inhibition
T22 construct: purchased Life Technologies (SelectScreen Whole Panel service)
Procedure, shortened: as §2

TEK (TIE2) R849W = target: T23, TEK (TIE2) R849W (Homo sapiens, UniProt Q02763, R849W); assay: LanthaScreen Binding - Eu-anti-GST; conditions: read-out: Percentage of inhibition
T23 construct: purchased Life Technologies (SelectScreen Whole Panel service)
Procedure, shortened: as §2

ZAK = target: T24, ZAK (Homo sapiens, UniProt Q9NYL2); assay: LanthaScreen Binding - Eu-anti-GST; conditions: read-out: Percentage of inhibition
T24 construct: purchased Life Technologies
Procedure, shortened: as §2

MAP3K11 (MLK3) = target: T25, MAP3K11 (MLK3) (Homo sapiens, UniProt Q16584); assay: LanthaScreen Binding - Eu-anti-GST; conditions: read-out: Percentage of inhibition
T25 construct: purchased Life Technologies
Procedure, shortened: as §2

ADCK3, sequence (Q8NI60 163-647): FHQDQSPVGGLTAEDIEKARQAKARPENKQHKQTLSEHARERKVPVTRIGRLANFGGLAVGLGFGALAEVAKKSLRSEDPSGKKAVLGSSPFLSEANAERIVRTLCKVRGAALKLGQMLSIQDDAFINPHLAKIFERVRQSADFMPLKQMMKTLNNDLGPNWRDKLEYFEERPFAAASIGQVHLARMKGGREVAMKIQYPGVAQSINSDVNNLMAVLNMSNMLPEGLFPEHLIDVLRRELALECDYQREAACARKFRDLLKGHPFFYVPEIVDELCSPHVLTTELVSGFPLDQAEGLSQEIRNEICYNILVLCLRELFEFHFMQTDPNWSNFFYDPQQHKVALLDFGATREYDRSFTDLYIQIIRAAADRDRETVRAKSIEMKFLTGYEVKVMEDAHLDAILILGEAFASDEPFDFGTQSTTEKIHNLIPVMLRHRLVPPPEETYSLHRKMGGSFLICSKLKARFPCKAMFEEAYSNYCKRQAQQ
T13 sequence (P07949 29-1114 V804M): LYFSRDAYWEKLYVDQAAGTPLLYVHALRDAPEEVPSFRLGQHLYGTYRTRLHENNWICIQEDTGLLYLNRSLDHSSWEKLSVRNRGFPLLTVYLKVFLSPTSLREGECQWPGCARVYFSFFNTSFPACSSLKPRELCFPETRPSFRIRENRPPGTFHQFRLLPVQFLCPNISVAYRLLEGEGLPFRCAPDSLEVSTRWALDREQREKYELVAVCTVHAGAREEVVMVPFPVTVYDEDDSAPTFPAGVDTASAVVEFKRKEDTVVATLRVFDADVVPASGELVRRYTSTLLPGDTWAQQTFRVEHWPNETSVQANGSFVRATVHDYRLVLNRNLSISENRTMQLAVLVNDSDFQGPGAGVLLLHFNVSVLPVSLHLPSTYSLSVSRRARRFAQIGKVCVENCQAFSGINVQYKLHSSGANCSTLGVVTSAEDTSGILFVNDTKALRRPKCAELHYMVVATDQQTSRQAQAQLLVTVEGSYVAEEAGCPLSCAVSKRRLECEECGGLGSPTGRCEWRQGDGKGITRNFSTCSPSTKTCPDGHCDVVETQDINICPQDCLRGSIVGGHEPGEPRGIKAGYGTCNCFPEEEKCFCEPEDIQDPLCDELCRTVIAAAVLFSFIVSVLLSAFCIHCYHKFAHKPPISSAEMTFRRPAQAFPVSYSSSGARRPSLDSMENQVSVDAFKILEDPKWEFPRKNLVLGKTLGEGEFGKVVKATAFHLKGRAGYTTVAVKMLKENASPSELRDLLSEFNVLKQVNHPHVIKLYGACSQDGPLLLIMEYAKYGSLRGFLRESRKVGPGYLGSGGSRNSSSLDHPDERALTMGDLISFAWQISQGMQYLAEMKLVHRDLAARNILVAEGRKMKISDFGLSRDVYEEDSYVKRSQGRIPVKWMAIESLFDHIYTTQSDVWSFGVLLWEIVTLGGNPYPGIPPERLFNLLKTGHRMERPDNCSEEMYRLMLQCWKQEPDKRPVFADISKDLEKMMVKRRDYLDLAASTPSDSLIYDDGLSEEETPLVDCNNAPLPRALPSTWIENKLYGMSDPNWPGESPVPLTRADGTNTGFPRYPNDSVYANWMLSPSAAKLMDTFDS
T15 sequence (Q8NFD2 whole entry): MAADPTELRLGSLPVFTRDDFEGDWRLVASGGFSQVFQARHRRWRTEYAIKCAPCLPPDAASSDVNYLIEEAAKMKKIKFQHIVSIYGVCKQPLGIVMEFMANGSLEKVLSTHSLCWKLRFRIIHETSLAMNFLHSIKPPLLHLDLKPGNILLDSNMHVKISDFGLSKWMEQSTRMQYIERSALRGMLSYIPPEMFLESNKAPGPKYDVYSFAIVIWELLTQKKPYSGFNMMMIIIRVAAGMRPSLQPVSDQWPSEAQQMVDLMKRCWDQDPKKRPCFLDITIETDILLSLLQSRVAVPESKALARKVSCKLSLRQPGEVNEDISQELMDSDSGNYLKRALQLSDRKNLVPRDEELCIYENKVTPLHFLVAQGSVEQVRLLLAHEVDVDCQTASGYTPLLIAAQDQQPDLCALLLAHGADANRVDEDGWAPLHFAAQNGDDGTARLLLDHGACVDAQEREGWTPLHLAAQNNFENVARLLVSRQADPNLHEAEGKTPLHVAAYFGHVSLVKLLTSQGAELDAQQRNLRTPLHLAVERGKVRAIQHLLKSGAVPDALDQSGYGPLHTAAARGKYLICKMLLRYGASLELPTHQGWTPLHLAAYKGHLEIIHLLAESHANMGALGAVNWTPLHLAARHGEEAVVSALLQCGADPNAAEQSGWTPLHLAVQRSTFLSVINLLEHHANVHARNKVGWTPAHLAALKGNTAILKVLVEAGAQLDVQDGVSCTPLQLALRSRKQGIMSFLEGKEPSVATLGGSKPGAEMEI
T17 sequence (Q92630 whole entry): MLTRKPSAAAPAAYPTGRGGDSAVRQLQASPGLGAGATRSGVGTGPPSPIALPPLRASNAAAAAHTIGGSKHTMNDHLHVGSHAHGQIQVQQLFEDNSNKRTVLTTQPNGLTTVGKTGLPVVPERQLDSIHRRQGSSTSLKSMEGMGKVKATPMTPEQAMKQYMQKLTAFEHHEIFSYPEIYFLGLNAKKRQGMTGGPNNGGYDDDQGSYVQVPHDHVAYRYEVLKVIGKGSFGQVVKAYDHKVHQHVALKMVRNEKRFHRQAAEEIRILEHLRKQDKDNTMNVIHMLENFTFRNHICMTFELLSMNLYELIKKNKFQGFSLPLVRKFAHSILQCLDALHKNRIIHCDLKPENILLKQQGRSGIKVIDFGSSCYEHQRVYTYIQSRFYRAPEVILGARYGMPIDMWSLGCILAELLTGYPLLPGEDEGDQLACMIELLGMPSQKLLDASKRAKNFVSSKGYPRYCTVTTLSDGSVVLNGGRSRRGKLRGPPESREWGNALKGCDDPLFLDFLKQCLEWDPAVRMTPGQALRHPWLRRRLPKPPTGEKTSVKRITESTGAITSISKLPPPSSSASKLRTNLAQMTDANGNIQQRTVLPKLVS
T10 sequence (P45985 whole entry): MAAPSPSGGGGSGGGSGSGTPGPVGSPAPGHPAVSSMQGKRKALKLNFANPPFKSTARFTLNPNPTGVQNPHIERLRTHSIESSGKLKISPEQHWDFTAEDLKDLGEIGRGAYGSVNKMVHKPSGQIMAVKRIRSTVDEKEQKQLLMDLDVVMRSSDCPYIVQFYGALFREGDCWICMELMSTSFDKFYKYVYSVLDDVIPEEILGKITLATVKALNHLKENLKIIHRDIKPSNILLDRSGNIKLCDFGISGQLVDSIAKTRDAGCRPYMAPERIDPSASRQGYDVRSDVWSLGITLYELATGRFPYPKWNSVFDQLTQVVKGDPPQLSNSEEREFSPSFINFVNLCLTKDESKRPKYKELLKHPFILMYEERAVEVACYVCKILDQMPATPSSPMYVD
T5 sequence (Q16832 22-855): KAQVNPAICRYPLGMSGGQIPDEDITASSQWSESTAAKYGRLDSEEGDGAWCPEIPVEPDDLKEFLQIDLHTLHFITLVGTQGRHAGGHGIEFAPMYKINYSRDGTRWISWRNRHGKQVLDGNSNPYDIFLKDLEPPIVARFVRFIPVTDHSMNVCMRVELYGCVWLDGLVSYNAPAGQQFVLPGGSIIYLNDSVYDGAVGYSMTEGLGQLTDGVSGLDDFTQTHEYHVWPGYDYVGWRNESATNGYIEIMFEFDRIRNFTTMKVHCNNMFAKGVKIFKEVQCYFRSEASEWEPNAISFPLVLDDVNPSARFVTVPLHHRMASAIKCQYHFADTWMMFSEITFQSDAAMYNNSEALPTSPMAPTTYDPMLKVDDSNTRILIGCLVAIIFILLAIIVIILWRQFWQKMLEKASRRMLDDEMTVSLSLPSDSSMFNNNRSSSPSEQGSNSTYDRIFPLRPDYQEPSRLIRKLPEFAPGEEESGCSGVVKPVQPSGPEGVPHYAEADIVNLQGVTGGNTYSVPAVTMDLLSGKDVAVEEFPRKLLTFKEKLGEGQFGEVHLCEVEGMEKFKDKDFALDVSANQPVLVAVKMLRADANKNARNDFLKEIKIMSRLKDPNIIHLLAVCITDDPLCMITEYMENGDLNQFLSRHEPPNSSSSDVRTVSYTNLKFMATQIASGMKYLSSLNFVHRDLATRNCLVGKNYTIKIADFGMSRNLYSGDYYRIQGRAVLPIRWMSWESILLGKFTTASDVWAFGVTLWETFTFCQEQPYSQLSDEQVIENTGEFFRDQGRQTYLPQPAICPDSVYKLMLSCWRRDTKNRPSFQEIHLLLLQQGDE
T14 sequence (P15056 whole entry): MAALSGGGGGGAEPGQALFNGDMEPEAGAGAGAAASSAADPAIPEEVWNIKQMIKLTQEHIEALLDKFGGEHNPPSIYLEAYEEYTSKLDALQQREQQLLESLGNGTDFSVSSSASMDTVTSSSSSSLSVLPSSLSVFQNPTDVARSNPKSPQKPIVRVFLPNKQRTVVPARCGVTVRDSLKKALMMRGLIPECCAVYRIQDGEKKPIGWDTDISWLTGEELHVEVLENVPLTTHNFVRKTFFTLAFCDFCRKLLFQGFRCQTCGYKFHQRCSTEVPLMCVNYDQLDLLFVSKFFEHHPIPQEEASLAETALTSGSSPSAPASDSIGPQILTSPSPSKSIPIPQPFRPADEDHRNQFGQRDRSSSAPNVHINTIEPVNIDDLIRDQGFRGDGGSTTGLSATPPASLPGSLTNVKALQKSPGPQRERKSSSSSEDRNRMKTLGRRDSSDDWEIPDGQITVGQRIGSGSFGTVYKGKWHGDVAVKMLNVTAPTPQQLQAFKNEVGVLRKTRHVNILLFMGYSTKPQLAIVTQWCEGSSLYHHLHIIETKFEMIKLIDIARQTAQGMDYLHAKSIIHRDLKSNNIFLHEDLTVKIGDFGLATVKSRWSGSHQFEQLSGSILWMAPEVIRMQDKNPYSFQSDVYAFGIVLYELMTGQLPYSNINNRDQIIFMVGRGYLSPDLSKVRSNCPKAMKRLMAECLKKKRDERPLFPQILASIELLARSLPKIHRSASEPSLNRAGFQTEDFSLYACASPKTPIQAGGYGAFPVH

Structure (SMILES): COc1ccc2[nH]c3c(=O)[nH]c4ccc(O)cc4c3c2c1 [Compound 55, 2-Hydroxy-10-methoxy-5,7-dihydro-6H-indolo[2,3-c]quinolin-6-one]
- HCT116 spheroid cell viability (HCT116 spheroids): marked dose-dependent effect
- U-2 OS spheroid cell viability (U-2 OS spheroids): marked dose-dependent effect
- inhibition at 1 µM (MYO3B (MYO3 beta)): 53%
- inhibition at 1 µM (KIT D816H): 80%
- inhibition at 1 µM (MAP3K3 (MEKK3)): 71%
- inhibition at 1 µM (TGFBR1 (ALK5)): 10%
- inhibition at 1 µM (PKMYT1): 14%
- inhibition at 1 µM (WNK2): 14%
- inhibition at 1 µM (DDR2): 3%
- inhibition at 1 µM (ALK R1275Q): 23%
- inhibition at 1 µM (EIF2AK2 (PKR)): 74%
- inhibition at 1 µM (ALK L1196M): 15%
- inhibition at 1 µM (CDK11/cyclin C): 37%
- inhibition at 1 µM (MAP2K4 (MEK4)): 26%
- inhibition at 1 µM (STK17B (DRAK2)): 93%
- inhibition at 1 µM (KIT T670E): 63%
- inhibition at 1 µM (MAP3K2 (MEKK2)): 42%
- inhibition at 1 µM (RET V804M): 88%
- inhibition at 1 µM (BRAF): 6%
- inhibition at 1 µM (ANKK1): 90%
- inhibition at 1 µM (IRAK3): 77%
- inhibition at 1 µM (ACVR2B): 21%
- inhibition at 1 µM (MKNK2 (MNK2)): 19%
- inhibition at 1 µM (DYRK2): 97%
- inhibition at 1 µM (GAK): 90%
- inhibition at 1 µM (SIK1): 19%
- inhibition at 1 µM (MYO3A (MYO3 alpha)): 33%
- inhibition at 1 µM (MAPK10 (JNK3)): 29%
- inhibition at 1 µM (FGFR1 V561M): 60%
- inhibition at 1 µM (ADCK3): 60%
- inhibition at 1 µM (MAP4K3 (GLK)): 59%
- inhibition at 1 µM (BRSK2): 15%
- inhibition at 1 µM (TEK (TIE2) R849W): 11%
- inhibition at 1 µM (ZAK): 4%
- inhibition at 1 µM (MAP3K11 (MLK3)): 36%
